From US20260232706A1, “1H-PYRAZOLE ANALOGUES AND METHODS AND USES THEREOF” (University of Manitoba, priority 2022, published 2026)

Experiments:
[1] = tested on: primary cortical neuronal cells; assay: Neurotoxicity/cell viability analysis in primary cortical neuronal cells (WST-8); assay type: cell-based, mouse; details: for cell viability compared to controls: 10 μM and 1 μM, FIG. 6B
Method: (§1) Methods: The in vitro properties and antioxidant abilities of the synthesized B^5-EDR analogues were assessed in cell-based assays. […] The methodology employed for each of these assays is detailed below.
(i) Methodology for neurotoxicity/cell viability analysis in primary cortical neuronal cells (FIGS. 6A-B): Briefly, the cerebral cortex was isolated from fetus of mouse at about 17-about 18-day gestation. After meninges and blood vessels were removed, the tissue was digested with trypsin for about 15 min at about 37° C., then incubated with DNase for about another 15 min at about 37° C. and terminated with DMEM plus about 10% fetal bovine serum. After the supernatant was removed, the tissue was added with about 5-ml neurobasal medium (Life Technologies Inc) and triturated by gently pipetting. Neuronal cells contained in the supernatant were transferred to poly-D-lysine-coated plastic culture plates, adjusted to approximately […], and cultured in neurobasal medium with GS21 supplements (Sigma-Aldrich Canada), 1× GlutaMax (Life Technologies Inc,) and about 1% penicillin-streptomycin at about 37° C. under about 5% CO2. About 100 kcells/100 μl/well were seeded in 96 well plates for 2 Div. […] On 8th Div of neurons, about 10 μl of WST reagent was added to each well and incubated for about 2 h. After about 2 h of incubation, the absorbance of soluble coloured formazan dye was measured […] at about […] using microplate reader (Biotek instruments) with the background control as a blank. The cell viability was determined by comparing the absorbance of compounds treated cells to that of control cells. Data are representative of two independent experiments, with each measurement or dose tested six times.

[2] = tested on: neuroblastoma-spinal cord hybrid NSC-34 cells; assay: Neuroprotective effect/cell viability analysis in NSC-34 cells against H2O2 induced oxidative stress; assay type: cell-based; details: for neuroprotection in scavenging neurotoxic effects of H2O2 compared to EDR / viability compared to EDR: 250 μM H2O2; for viability compared to EDR: 50 μM dose
Method: as §1
(iii) Methodology for neuroprotective effect/cell viability analysis in (NSC-34) cells (FIGS. 8A-B): Briefly, NSC-34 cells with about 20 k cells per well in 96 well plates were cultured in a complete medium consisting of high glucose Dulbecco's modified eagle medium (DMEM) (Thermo Fisher Scientific) supplemented with about 10% US-origin fetal bovine serum (Thermo Fisher Scientific), GlutaMAX-1, about 200 mM (100×) (Thermo Fisher Scientific), about 1% 100 mM Sodium pyruvate and about 1% 10,000 U/mL penicillin-streptomycin solution (Thermo Fisher Scientific) for about 20 h to reach confluency of about 70%—about 75%. All the cells were cultured in an incubator with about 5% of CO2 at about 37° C. About 20 kcells/100 μl/well were seeded in 96 well plates for about 20 h in triplicates. […] After about 1 h, the cells were treated with 250 μM of H2O2 for about 2 h. After a total period of about 3 h, about 10 μl of WST-8 reagent was added in each well and the absorbance readings were recorded after about 2.5 h at about 450 nm. All the experiments were repeated at least three times and measurements were run in triplicates.

[3] = tested on: neuroblastoma-spinal cord hybrid NSC-34 cells; assay: Neurotoxicity/cell viability analysis in NSC-34 cells (WST-8); assay type: cell-based; details: 1 to 100 μM
Method: as §1
(ii) Methodology for neurotoxicity/cell viability analysis in (NSC-34) cells (FIGS. 7A-C): Briefly, NSC-34 cells with about 20 k cells per well in 96 well plates were cultured in a complete medium consisting of high glucose Dulbecco's modified eagle medium (DMEM) (Thermo Fisher Scientific) supplemented with about 10% US-origin fetal bovine serum (Thermo Fisher Scientific), GlutaMAX-1, about 200 mM (100×) (Thermo Fisher Scientific), about 1% 100 mM Sodium pyruvate and about 1% 10,000 U/mL penicillin-streptomycin solution (Thermo Fisher Scientific) for about 20 h to reach confluency of about 70%—about 75%. All the cells were cultured in an incubator with about 5% of CO2 at about 37° C. About 20 kcells/100 μl/well were seeded in 96 well plates for about 20 h in triplicates. Cells were treated with different concentration of compounds and incubated for about 20 h. […] After about 2.5 h of incubation, the absorbance of soluble coloured formazan dye was measured […] at about […] using microplate reader (Biotek instruments) with the background control as a blank. The cell viability was determined by comparing the absorbance of compounds treated cells to that of control cells. […]

[4] = target: CYP3A4 enzymes (Homo sapiens, UniProt P08684); details: cited from earlier work
CYP3A4 enzymes, sequence (P08684 whole entry): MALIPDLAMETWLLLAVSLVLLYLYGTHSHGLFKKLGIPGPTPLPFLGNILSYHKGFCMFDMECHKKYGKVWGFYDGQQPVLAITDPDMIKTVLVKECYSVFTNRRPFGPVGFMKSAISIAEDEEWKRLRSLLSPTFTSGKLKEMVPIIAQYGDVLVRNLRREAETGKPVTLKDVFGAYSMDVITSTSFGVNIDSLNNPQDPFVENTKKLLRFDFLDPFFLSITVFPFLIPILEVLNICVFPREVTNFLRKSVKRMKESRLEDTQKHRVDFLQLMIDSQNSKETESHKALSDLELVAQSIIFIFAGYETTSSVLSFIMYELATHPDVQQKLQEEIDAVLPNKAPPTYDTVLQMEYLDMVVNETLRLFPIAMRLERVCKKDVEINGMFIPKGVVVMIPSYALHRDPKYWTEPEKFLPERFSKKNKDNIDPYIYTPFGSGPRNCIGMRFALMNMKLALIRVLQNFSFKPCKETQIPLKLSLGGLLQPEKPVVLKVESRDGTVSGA

[5] = target: P-glycoprotein (Pgp) efflux pump (Homo sapiens, UniProt P08183); details: cited from earlier work
P-glycoprotein (Pgp) efflux pump, sequence (P08183 whole entry): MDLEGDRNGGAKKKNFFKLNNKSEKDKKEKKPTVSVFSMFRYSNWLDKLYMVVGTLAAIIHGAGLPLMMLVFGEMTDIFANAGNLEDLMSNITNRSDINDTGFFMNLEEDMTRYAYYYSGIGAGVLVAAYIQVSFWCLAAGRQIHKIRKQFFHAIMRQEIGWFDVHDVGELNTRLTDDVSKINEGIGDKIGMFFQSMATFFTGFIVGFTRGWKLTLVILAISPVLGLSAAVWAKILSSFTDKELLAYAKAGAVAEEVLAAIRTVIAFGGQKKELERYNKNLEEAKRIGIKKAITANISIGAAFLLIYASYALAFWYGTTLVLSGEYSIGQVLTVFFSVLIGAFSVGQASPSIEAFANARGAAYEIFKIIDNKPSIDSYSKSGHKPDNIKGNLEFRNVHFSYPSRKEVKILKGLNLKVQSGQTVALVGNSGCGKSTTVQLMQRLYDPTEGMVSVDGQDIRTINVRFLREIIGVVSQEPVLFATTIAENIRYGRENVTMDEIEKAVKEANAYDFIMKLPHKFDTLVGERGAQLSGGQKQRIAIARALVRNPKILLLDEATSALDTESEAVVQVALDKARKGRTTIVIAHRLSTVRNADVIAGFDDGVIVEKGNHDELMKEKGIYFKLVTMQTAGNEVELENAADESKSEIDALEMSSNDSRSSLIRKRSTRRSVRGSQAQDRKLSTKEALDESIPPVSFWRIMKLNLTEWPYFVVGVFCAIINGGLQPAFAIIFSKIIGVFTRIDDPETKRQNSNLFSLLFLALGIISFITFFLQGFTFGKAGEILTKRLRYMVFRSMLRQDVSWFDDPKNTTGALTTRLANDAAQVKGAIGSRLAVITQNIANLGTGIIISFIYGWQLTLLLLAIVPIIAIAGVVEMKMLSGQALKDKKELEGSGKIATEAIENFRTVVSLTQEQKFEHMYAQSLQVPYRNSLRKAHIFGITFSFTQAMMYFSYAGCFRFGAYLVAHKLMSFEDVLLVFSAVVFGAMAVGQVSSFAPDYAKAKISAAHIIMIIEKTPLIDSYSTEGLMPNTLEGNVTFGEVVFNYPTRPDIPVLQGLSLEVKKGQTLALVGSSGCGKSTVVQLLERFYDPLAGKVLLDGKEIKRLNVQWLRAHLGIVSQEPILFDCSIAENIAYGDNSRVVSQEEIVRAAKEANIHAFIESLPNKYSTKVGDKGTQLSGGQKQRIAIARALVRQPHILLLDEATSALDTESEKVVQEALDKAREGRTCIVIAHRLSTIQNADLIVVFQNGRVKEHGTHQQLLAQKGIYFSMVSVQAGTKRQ

[6] = tested on: neuroblastoma-spinal cord hybrid NSC-34 cells; assay: Neuroprotective effect/cell viability analysis in NSC-34 cells against H2O2 induced oxidative stress; assay type: cell-based; details: prophylactic treatment, 250 μM H2O2, FIG. 7A
[7] = cited from earlier work
[8] = tested on: ALS; details: patients in early stages, drug for 6 months or more; cited from earlier work

SMILES	cell viability compared to controls [1]	neuroprotection in scavenging neurotoxic effects of H2O2 compared to EDR ([2]; 1 μM)	neuroprotection in scavenging neurotoxic effects of H2O2 compared to EDR ([2]; 25 μM)	viability compared to EDR [2]	neurotoxicity and cytotoxicity towards NSC-34 motor neuronal cells [3]	decrease in cell viability compared to control (DMSO) ([1]; mouse, 6 days, 25 μM)	metabolism by CYP3A4 [4]	H2O2 scavenging effects ([2]; 250 μM H2O2, FIGS. 8A-B)	P-glycoprotein efflux pump substrate status [5]	protection from loss of cell viability induced by H2O2 [6]	aqueous solubility [7]	fraction of EDR existing as an anion ([7]; physiological pH about 7.4)	fraction of EDR existing in neutral form ([7]; physiological pH about 7.4)	effect on progression of ALS [8]
F[B-](F)(F)c1cc(C(F)(F)F)nn1-c1ccccc1.[K+] [NS-1-19, Potassium trifluoro(3-triflouromethyl-1phenyl-1H-pyrazol-5-yl)borate]	around 100%	better neuroprotection	better neuroprotection	almost equal viability										
Cc1cc([B-](F)(F)F)n(-c2ccccc2)n1.[K+] [NS-1-21, Potassium trifluoro(3-methyl-1phenyl-1H-pyrazol-5-yl)borate]	around 100%	better neuroprotection	better neuroprotection	almost equal viability										
CC1(C)OB(c2cc(C(F)(F)F)nn2-c2ccccc2)OC1(C)C [NS-1-12, 3-triflouromethyl-5-(4,4,5,5-tetramethyl-1,3,2-dioxaborolan-2-yl)-1-phenyl1H-pyrazole]			better neuroprotection	almost equal viability										
CC1=NN(c2ccccc2)C(=O)C1 [EDR, 3-methyl-1-phenyl-2-pyrazolin-5-one]					no neurotoxicity and cytotoxicity	~70±10%	metabolized pre-systematically	significant H2O2 scavenging effects in a dose dependent manner	substrate	protected NSC-34 cells from loss of cell viability	about 1.85 mg/ml	about 71.5%	about 28.5%	delayed the progression of ALS
